The values that follow come from ChEMBL document CHEMBL3301461, “MMV Malaria Box thermal shift screening” (2015).

SMILES strings stand for the structures.

Assay [1] deals with Plasmodium falciparum. Put plainly: (§1) MMV: Thermal shift assay for identifying inhibitors. Particulars: 3D7.
Assay [2] has as its system Leishmania donovani. The description is as §1.

With `CCN(Cc1ccccc1)C1CCN(Cc2cc(Br)ccc2O)CC1`, the ΔTm – broadly, the change in melting temperature against a reference sample – in assay [1] turned out to be 12.4 °C. `COc1ccc(C(=O)NC(c2ccc(Cl)cc2Cl)c2cc(Cl)c3cccnc3c2O)cc1` (centres undefined): in assay [2], the thermal shift (ΔTm) turned out to be 2.4 °C. The same measure, in the same setting: the same measure for `CCOc1ccc(C2N(C)c3ccccc3N2C)cc1`: 2.5 °C. On to `Cc1ccc(Nc2nc(N)c3ccccc3n2)cc1Cl`, for which the ΔTm in assay [2] turned out to be 4 °C. `FC(F)(F)c1cccc(Nc2nc(-c3ccccc3)nc3ncccc23)c1`: the ΔTm in assay [1] came out at 3.7 °C. On to `COc1ccc2c(c1)OC(O)(C(F)(F)C(F)(F)F)CC2=O` (centres undefined), for which the ΔTm in assay [1] is 7.5 °C. In the case of `CCOc1cccc(C(=O)Nc2ccc(-c3nc4ccccc4[nH]3)cc2)c1`, in assay [1], the ΔTm worked out at 2.9 °C. The same measure, in the same setting: the same measure for `O=C(NC1CCN(Cc2ccccc2)CC1)c1cc(-c2ccncc2)nc2ccc(Cl)cc12`: 3 °C. For the compound `O=C(NC1CCN(Cc2ccccc2)CC1)c1cc(-c2cccnc2)nc2ccc(Cl)cc12`, the ΔTm in assay [2] turned out to be 2.4 °C. On to `CCN(CC)CCCNc1nc(-c2ccc(Cl)cc2)nc2ccccc12`, for which, in assay [1], the ΔTm was determined as 4.1 °C.

For the compound `COc1ccc(-c2cc(=O)oc3c4c(ccc23)OCN(Cc2ccc(F)cc2)C4)cc1`, the ΔTm in assay [1] was found to be 2.2 °C. For the compound `CC1CCN(Cc2ccc(NC(=O)c3cc4ccc5cccnc5c4[nH]3)cc2)CC1`, the ΔTm in assay [1] stood at 2.2 °C. Same read-out and setting: the same measure for `Cc1cccc(-n2ncc3c(O)nc(-n4nc(C)cc4NC(=O)c4cc5ccccc5o4)nc32)c1`: 12.7 °C; for `CCN(CC)CCNc1ncnc2c1[nH]c1ccc(Cl)cc12`: 2.3 °C. With `COc1ccc(C=C2SC(=N)N(c3ccccc3OC)C2=O)cc1`, in assay [1], the ΔTm came out at 5.4 °C. On to `Cc1sc2ncnc(Sc3nc4ccccc4[nH]3)c2c1C`, for which, in assay [1], the ΔTm stood at 2.1 °C. With `CCOc1cc2c(cc1OCC)C(c1cc(C)c(O)c(C)c1)NCC2` (centres undefined), the ΔTm in assay [2] came to 3.3 °C.

In the case of `FC(F)(F)c1cccc(Nc2nc3ccccc3nc2Nc2cccc(C(F)(F)F)c2)c1`, the ΔTm in assay [1] stood at 2.5 °C. Same read-out and setting: with `CCOC(=O)c1cnc2ccc(Cl)cc2c1NCCCN(C)C` the figure was 3.1 °C; with `CC(C)(C)C(=O)Nc1ccc(C(=O)Nc2cccc(-c3nc4ccccc4[nH]3)c2)cc1`, 2.3 °C. With `COc1cc(C(=O)Nc2ccc(-c3nc4ccccc4[nH]3)cc2)cc(OC)c1OC`, the ΔTm in assay [2] worked out at 4.8 °C. Turning to `Cc1cc(C)cc(Nc2cc(C)nc3nc(C(F)(F)F)nn23)c1`, the ΔTm in assay [2] is 2.2 °C.

As for `CCC(O)c1ccc(Br)cc1NC(=O)c1cccc(Cl)c1` (centres undefined), the ΔTm in assay [1] was 2 °C. In the case of `COc1cccc(Nc2nc(NCCO)c3ccccc3n2)c1`, the ΔTm in assay [1] is 2 °C. As for `O=C(Nc1ccc(Br)cc1)Nc1cccc(Cl)c1`, the ΔTm in assay [1] is 3.6 °C. Same read-out and setting: with `COc1ccc(Nc2nc(NCc3ccccc3)c3ccccc3n2)cc1` the figure was 2.4 °C; with `CC1CCCCN1CCCNC(=O)c1ccc2c(c1)sc1nc(-c3ccc(F)cc3)cn12` (centres undefined), 2.4 °C. On to `O=c1cc(NC2CCN(CCCc3ccccc3)CC2)c2cc(Cl)ccc2o1`, for which the ΔTm in assay [1] came to 3.1 °C. Take `O=C(Nc1ccccc1O)c1ccc(Oc2cccc(C(=O)Nc3ccccc3O)c2)cc1`: the ΔTm in assay [1] stood at 2.2 °C. As to `CCCN(CCC)CCCNC(=O)c1cc2c(-c3ccc(OC)c(OC)c3)nn(C)c2s1`, the ΔTm in assay [1] turned out to be 2 °C.

As to `Cc1ccc(NC(=O)Nc2cccc(Cl)c2)cc1F`, the ΔTm in assay [1] stood at 2.4 °C. Regarding `COc1cc2cc(C(=O)Nc3ccccc3)c(N)nc2cc1OC`, in assay [1], the ΔTm is 2.7 °C. Consider `COc1cc(OC)cc(C(=O)Nc2ccc(-c3nc4ccccc4[nH]3)cc2)c1`, for which the ΔTm in assay [1] amounted to 2.6 °C.

Regarding `COc1cccc(C(=O)Nc2ccc(-c3nc4ccccc4[nH]3)cc2)c1`, the ΔTm in assay [1] was determined as 2.5 °C.
